In brackets after ≈: the same amount, converted by molar mass. Several values for one entry are separate records, joined by “and”; a condition that tells them apart may be missing. Equal entries are not always repeated. Where two headings read alike, the source gives them in different places.

The values that follow come from patent US20230132133A1, “METHODS AND COMPOSITIONS FOR THE TREATMENT OF C. DIFFICILE” (priority 2018, published 2023).

Test [1] deals with B. amyloliquefaciens ART12. Nature of the test: Antibiotic MIC, VetMIC Lact-1 & Lact-2 panels. Format: cell-based, Bacillus amyloliquefaciens. To be noted: 24 hr at 37° C.; for MIC: Bacillus amyloliquefaciens, ART12. The procedure: (§1) The wells of the prefabricated 96-well plates were filled with 100 μL of the final suspension. The plates were sealed with an […], Sigma Aldrich) sealing film (to facilitate growth of the aerobic Bacillus strains. The plates were then incubated for 24 hr at 37° C. The results are recorded after 24 hours as the lowest concentration of the antibiotic to inhibit visible growth. The prefabricated panels […], Uppsala, Sweden) comprising the antibiotics ampicillin, vancomycin, gentamicin, kanamycin, streptomycin, erythromycin, clindamycin, tetracycline, chloramphenicol, neomycin, penicillin, quinupristin-dalfopristin, linezolid, trimethoprim, ciprofloxacin and rifampicin were used.

Test [2] concerns B. amyloliquefaciens ART24. Nature of the test: Antibiotic MIC, VetMIC Lact-1 & Lact-2 panels. It counts as cell-based, Bacillus amyloliquefaciens. To be noted: 24 hr at 37° C.; for MIC: Bacillus amyloliquefaciens, ART24. The procedure:
as §1

For test [3], the system named is B. amyloliquefaciens ART4. As to the kind of experiment: Antibiotic MIC, VetMIC Lact-1 & Lact-2 panels. Format: cell-based, Bacillus amyloliquefaciens. The note with it: 24 hr at 37° C.; for MIC: Bacillus amyloliquefaciens, ART4. The procedure:
as §1

Test [4] relates to B. amyloliquefaciens ART24. Nature of the test: Antibiotic MIC following EFSA testing recommendations on lyophilized ART24 lots and cell banks. Format: cell-based, Bacillus amyloliquefaciens. The note with it: for MIC: Bacillus amyloliquefaciens. The source says:
The minimum inhibitory concentration (MIC) of the listed antimicrobials is expressed as µg/mL.

In test [5] the test system is C. difficile ATCC 43255. As to the kind of experiment: C. difficile mouse model, in vivo efficacy. Set-up: species or system Mice (C57BL/6J female). To be noted: to study day 10 post-C. difficile infection. The procedure: C. difficile mouse model. The mouse model of C. difficile infection was prepared as described elsewhere (Chen, X, et al., Gastroenterology 135:1984-1992 (2008)).
Mice (C57BL/6J female) were divided prospectively into 4 treatment groups of 15 animals (Table 7) and housed 5 animals per cage.
Mice received an antibiotic cocktail for eight consecutive days in their drinking water starting 13 days prior to C. difficile infection (study day 0). The antibiotic cocktail was changed every third day with freshly prepared antibiotics provided. The antibiotic cocktail consisted of 1% glucose, kanamycin (0.5 mg/mL), gentamicin (0.044 mg/mL), colistin (1062.5 U/mL), metronidazole (0.269 mg/mL), ciprofloxacin (0.156 mg/mL), ampicillin (0.1 mg/mL) and vancomycin (0.056 mg/mL). Five days prior to C. difficile infection, the antibiotic water was removed. Animals were placed in clean cages and sterile drinking water provided to the mice. Three days prior to infection mice were administered Clindamycin at 10 mg/kg via oral gavage in a volume of 10 mL/kg.
The strain was applied to TSA agar plates from frozen stocks (3 days prior to dosing) and cultured overnight at 37° C. […]
Mice were observed daily through the course of the study. […] Clinical observations were also performed with adverse observations recorded when appropriate. […]

Test [6] has as its system B. amyloliquefaciens ART12. Nature of the test: MIC of metronidazole and fidaxomicin, CLSI standard method. It counts as cell-based. The note with it: Bacillus amyloliquefaciens, triplicates, 16 hours, read-out: MIC against ART12. The procedure:
(§2) Briefly, minimum inhibitory concentration assays were carried out in triplicate using 96-well plates (Sarstedt). Two-fold serial dilutions from an initial concentration of 512 µg/mL of each antibiotic were carried out in BHI broth (Merck). An overnight of the target strain was subcultured and incubated to an OD600 nm of 0.5 before being diluted to give a final inoculum of 10^5 cfu/ml in 200 µL and added to the antibiotic preparations. The plates were incubated at an appropriate temperature and inspected after 16 hours. The MIC was determined as the lowest concentration at which no growth was visible.

The test system of test [7] is B. amyloliquefaciens ART24. The description is as above. It counts as cell-based. To be noted: Bacillus amyloliquefaciens, triplicates, 16 hours, read-out: MIC against ART24. The protocol: as §2
In test [8] the test system is B. amyloliquefaciens ART4. The test is described as above. It counts as cell-based. To be noted: Bacillus amyloliquefaciens, triplicates, 16 hours, read-out: MIC against ART4. The procedure: as §2
The mark [9] stands for this setting: ART24, source CO-33-12A2, read-out: MIC for ART24.
Where [10] appears, read: ART24, source CO-33 ART 24 BHI, read-out: MIC for ART24.
Setting [11] is: ART24, source CO-33 ART 024 S, read-out: MIC for ART24.
[12] abbreviates: ART24, source YD CO-33-10A2, read-out: MIC for ART24.

In the case of `CN[C@H](CC(C)C)C(=O)N[C@H]1C(=O)N[C@@H](CC(N)=O)C(=O)N[C@H]2C(=O)N[C@H]3C(=O)N[C@H](C(=O)N[C@H](C(=O)O)c4cc(O)cc(O)c4-c4cc3ccc4O)[C@H](O)c3ccc(c(Cl)c3)Oc3cc2cc(c3O[C@@H]2O[C@H](CO)[C@@H](O)[C@H](O)[C@H]2O[C@H]2C[C@](C)(N)[C@H](O)[C@H](C)O2)Oc2ccc(cc2Cl)[C@H]1O` [Vancomycin], the MIC was 0.5 µg/mL (≈ 0.345 µM) in test [1]; 0.5 to 1 µg/mL (≈ 0.345 to 0.69 µM) in test [2]; 0.5 µg/mL (≈ 0.345 µM) in test [3]; 0.5 µg/mL (≈ 0.345 µM) in test [4] (ART24, read-out: MIC for ART24). The “MIC interpretation for ART24” value in test [4] is 0.5 (S) and ≤0.25 (S). Further, in test [5], the “animals survived (survivors/group)” value is on record as 15/15.
With `CCc1c(Cl)c(O)c(Cl)c(O)c1C(=O)O[C@H]1[C@H](O)[C@H](OC)[C@H](OC/C2=C\C=C\C[C@H](O)/C(C)=C/[C@H](CC)[C@@H](O[C@@H]3OC(C)(C)[C@@H](OC(=O)C(C)C)[C@H](O)[C@@H]3O)/C(C)=C/C(C)=C/C[C@@H]([C@@H](C)O)OC2=O)O[C@@H]1C` [Fidaxomicin, fidaxomicin], the minimal inhibitory concentration (MIC) in test [4] (setting [9]) was 4 µg/mL (≈ 3.78 µM); in test [4] (setting [10]) it was 4 µg/mL (≈ 3.78 µM); in test [4] (setting [11]) it was 4 µg/mL (≈ 3.78 µM); in test [4] (setting [12]) it was 2 µg/mL (≈ 1.89 µM); in test [6], < 1 µg/mL; in test [7], 2 µg/mL. The MIC in test [8] was < 1 µg/mL.
As for `Cc1ncc([N+](=O)[O-])n1CCO` [Metronidazole, metronidazole], the MIC in test [4] (ART24, anaerobic, source CO-33-12A2, read-out: MIC for ART24) is 64 µg/mL (≈ 374 µM); in test [4] (ART24, anaerobic, source CO-33 ART 24 BHI, read-out: MIC for ART24) it was 64 µg/mL (≈ 374 µM); in test [4] (ART24, anaerobic, source CO-33 ART 024 S, read-out: MIC for ART24), 64 µg/mL (≈ 374 µM); in test [4] (ART24, anaerobic, source YD CO-33-10A2, read-out: MIC for ART24) it was 64 µg/mL (≈ 374 µM); in test [4] (setting [9]) it was > 64 µg/mL; in test [4] (setting [10]) it was > 64 µg/mL. For the same molecule, the MIC is > 64 µg/mL in test [4] (setting [11]); > 64 µg/mL in test [4] (setting [12]); 64 µg/mL in test [6]; 128 µg/mL in test [7]; 128 µg/mL in test [8].
As to Neomycin, the “B. amyloliquefaciens MIC ART12” value in test [1] (average results from N= 6) is ≤0.5 µg/mL. Moreover, the “B. amyloliquefaciens MIC ART24” value in test [2] (average results from N= 6) was ≤0.5 µg/mL. Moreover, in test [3] (average results from N= 6), the “B. amyloliquefaciens MIC ART4” value was ≤0.5 µg/mL. In addition, the “MIC for ART24” value in test [4] (source CO-33-12A2), in test [4] (source CO-33 ART 24 BHI), in test [4] (source CO-33 ART 024 S) and in test [4] (source YD CO-33-10A2) was ≤0.12 µg/mL in each case.
`CO[C@H]1/C=C/O[C@@]2(C)Oc3c(C)c(O)c4c(O)c(c(/C=N/N5CCN(C)CC5)c(O)c4c3C2=O)NC(=O)/C(C)=C\C=C\[C@H](C)[C@H](O)[C@@H](C)[C@@H](O)[C@@H](C)[C@H](OC(C)=O)[C@@H]1C` [Rifampicin]: the MIC in test [1] (average results from N= 6) amounted to 0.5 µg/mL (≈ 0.608 µM); in test [2] (average results from N= 6), 0.5 µg/mL (≈ 0.608 µM); in test [3] (average results from N= 6), 0.25 µg/mL (≈ 0.304 µM); in test [4] (setting [9]), 0.25 µg/mL (≈ 0.304 µM); in test [4] (setting [10]), 0.25 µg/mL (≈ 0.304 µM); in test [4] (setting [11]), 0.25 µg/mL (≈ 0.304 µM). The MIC in test [4] (setting [12]) is 0.25 µg/mL (≈ 0.304 µM). In addition, the “MIC interpretation for ART24” value in test [4] (source CO-33-12A2), in test [4] (source CO-33 ART 24 BHI), in test [4] (source CO-33 ART 024 S) and in test [4] (source YD CO-33-10A2) was “S” each time.

As usually defined, the MIC is the smallest concentration in the dilution series that meets the test's criterion for growth inhibition.
